Experimental findings from patent US20130204017A1, “GLYCERYL ASCORBIC ACID ACYLATED DERIVATIVE OR ITS SALT, PRODUCTION METHOD THEREOF, AND COSMETICS” (SEIWA KASEI COMPANY, LIMITED, priority 2012, published 2013) are described below.

Data set [1] concerns Normal human dermal fibroblasts. Nature of the data set: Collagen production evaluation test (Sircol collagen assay). Type of data set: cell-based. The settings on record: Homo sapiens, Fibroblast; sample 100 μM; cultured 48 hours; read-out: Collagen production promoting effect (collagen production amount, control group is 100%). Here is the method:
The collagen production promoting effects of the glyceryl ascorbic acid acylated derivatives of the present invention were evaluated, according to the following procedure. As comparison, arbutin, ascorbic acid, sodium ascorbate, magnesium ascorbyl phosphate, glucosyl ascorbic acid, 3-O-glyceryl ascorbic acid and 2-O-glyceryl ascorbic acid were used like in Test Example 1.
Normal human dermal fibroblasts were regulated with a 10% (v/v) fetal bovine serum (manufactured by Invitrogen)-containing D-MEM so as to give a cell density of 2.5×10^4 cells/well, then, pre-incubation for 24 hours was performed on a 96-well plate. After the medium was removed, a sample regulated with a 5% (v/v) fetal bovine serum-containing D-MEM to a concentration of 100 μM was added to each well, then, cultured for 48 hours at 37° C. and 5% CO2. After completion of culturing, the amount of free collagen was measured using Sircol collagen assay kit (manufactured by Biocolor).
The collagen production amount in applying a sample at a concentration of 100 μM is obtained as % value when the control group is 100%, and the results are shown in Table 4 based on the following standard.

Data set [2] can be described thus: In vitro moisturizing test (amount of retained water). It is filed as physicochemical. The settings on record: 25° C., 65% RH to equilibrium, then 25° C., 20% RH for 24 hours. Here is the method: (§1) An in vitro moisturizing test and an in vivo moisturizing test of the glyceryl ascorbic acid acylated derivatives of Examples 1 to 6 were carried out according to the following manner. For comparison, sodium ascorbate, magnesium ascorbyl phosphate, glucosyl ascorbic acid, 3-O-glyceryl ascorbic acid, 2-O-glyceryl ascorbic acid and 3-O-cetyl ascorbic acid were used.
A sample shown later was dried, and the dried sample was spread in an amount of about 0.4 g (this weight is represented by W0) on the bottom of a weighing bottle (diameter: 3.6 cm, height excluding lid: 1.8 cm) so as to give uniform thickness. The sample contained in the weighing bottle was allowed to stand still in a constant humidity and constant temperature vessel (ENVIROS KCL-1000, EYELA) under environments of 25° C. and 65% RH. The weight was measured periodically, waiting until sufficient moisture absorption to attain equilibrium of weight increase (about 48 hours). Thereafter, the sample was transferred to under environments of 25° C. and 20% RH (in sealed vessel containing a saturated CH3COOK aqueous solution filled in the bottom part). From the weight after 24 hours (this weight is represented by W1), the amount of retained water per 1 g of the dried sample was calculated according to the following formula.
From the water amount thus calculated, the moisturizing effect was judged based on the following judging criterion, and the results are shown in Table 8.
Δ: 15 mg or more and less than 35 mg

Data set [3] is described as follows: In vivo moisturizing test (stratum corneum water content, forearm). The conditions noted are these: 5 g in 100 mL water, pH 7; 0.3 mL on forearm; 8 hours; 10 subjects. The procedure: as §1
Each test sample (5 g) was dissolved in 100 mL of water, and pH thereof was adjusted to 7 with a dilute sodium hydroxide aqueous solution or a dilute hydrochloric acid aqueous solution to prepare a sample solution. A paper filter of 1 cm×1 cm was placed on a forearm portion and 0.3 mL of the prepared sample solution was applied on this, and covered and fixed by a polyamide film. Then, 3 hours and 8 hours after, the stratum corneum water content at the sample-applied portion was measured using CORNEOMETER CM825 (manufactured by Integral Corporation). The test was carried out with 10 subjects, and evaluated according to the following criterion (evaluation standard).
3: Stratum corneum water content increased by 15% or more, based on the water content before sample application
2: Stratum corneum water content increased by 0 to less than 15%, based on the water content before sample application
1: There was no change or there was a reduction in stratum corneum water content, before and after sample application.
Based on the evaluation results, classification was set as described below.
◯: Total points of 10 subjects is 25 or more
Δ: Total points of 10 subjects is 16 to 24
x: Total points of 10 subjects is 15 or less

The test system of another data set is B16 melanoma 4A5 cell. Nature of the data set: Melanin production suppressing evaluation test (theophylline-induced melanine production). Type of data set: cell-based, mouse. The settings on record: sample at a concentration of 100 μl or less; 0.2 mM theophylline; culturing 3 days. Here is the method: As a test for a whitening effect, evaluation of the action of B16 melanoma 4A5 cell on theophylline-induced melanine production was carried out on a glyceryl ascorbic acid acylated derivative of the present invention, according to the following procedure. The same evaluations were carried out also on arbutin, ascorbic acid, sodium ascorbate, magnesium ascorbyl phosphate, glucosyl ascorbic acid, and 3-O-glyceryl ascorbic acid and 2-O-glyceryl ascorbic acid obtained in the Synthesis Examples mentioned above, as comparison.
(1) B16 mouse melanoma 4A5 strain was sowed onto a 48-well plate at a cell density of 2.0×10^4 cells/well. (2) Culturing was performed for 24 hours with Dulbecco's Modified Eagle's medium (manufactured by SIGMA. Hereinafter, abbreviated as D-MEM) containing 10% fetal bovine serum (manufactured by Roshe Diagnostics). Then, it was changed to 0.2 mM theophylline and a 10% fetal bovine serum-containing D-MEM which contains a sample of given concentration. (3) After culturing for 3 days in the co-existence of a sample, the medium was removed using an aspirator. Then, after distilled water was added, cells were broken by an ultrasonic wave. (4) Thereafter, the amount of protein was determined using BCA protein assay kit (manufactured by PIERCE), and the produced amount of melanine was measured by an alkali solubilizing method described later. To the cell-destructed solution was added sodium hydroxide so as to give a final concentration of 2 mol/L and the mixture was dissolved by heating (60° C., 15 minutes), then, the absorbance at 450 nm was measured using a micro plate reader. The melanine amount was calculated from a calibration curve made using synthetic melanine (SIGMA) as a standard. The melanine amount per unit protein was calculated by dividing the melanine amount by the protein amount. (5) The melanine production suppressing rate was calculated according to the following formula.
Melanine production suppressing rate(%)=[1−(A−B)/(C−B)]×100
[wherein, A represents the melanine amount per unit protein (g/g) in adding a sample, B represents the melanine amount per unit protein (g/g) in the normal group, and C represents the melanine amount per unit protein (g/g) in the control group.]
The normal group means the case where neither theophylline nor sample was added.(that is; theophylline(−) and sample(−))
The control group means the case where neither sample was not added but theophylline was added.(that is; theophylline (+) and sample(−))
In the following Tables, the melanine production suppressing rate in applying a sample at a concentration of […] or less is expressed as described below.

Data set [4] can be described thus: Stability test: odor and color change of 2% aqueous solution stored at 50° C. Type of data set: physicochemical. The settings on record: pH7, ten panelists. Here is the method:
Using 2-O-glyceryl-6-O-octanoyl ascorbic acid obtained in Example 2 and 2-O-glyceryl-6-O-octadecanoyl ascorbic acid obtained in Example 9, an evaluation was made on the stability of odor and color change when stored at 50° C. for 4 weeks, according to the following procedure. For comparison, magnesium ascorbyl phosphate, ascorbic acid and 3-O-glyceryl ascorbic acid were used.
Aqueous solutions (2%) of various test samples were adjusted to pH7 with a dilute sodium hydroxide aqueous solution or a dilute hydrochloric acid aqueous solution, and charged into 50 mL screw tubes. The tubes were sealed and stored at 50° C. for 4 weeks. The odor and degree of color change immediately after preparation, after storage for two weeks and after storage for four weeks were evaluated by ten panelists based on the following methods and according to the following criterion.
3: almost no change as compared with that immediately after preparation
2: color change is observed as compared with that immediately after preparation
1: intense color change is observed as compared with that immediately after preparation
Based on the evaluation results, classification was conducted as shown below.
◯: total point of 10 panelists is 25 or more
Δ: total point of 10 panelists is 16 to 24
x: total point of 10 panelists is 15 or less

[5] abbreviates: storage period 0 (immediately after preparation).

As for `O=C1O[C@H]([C@@H](O)CO)C(OCC(O)CO)=C1O` (stereo partly shown) [3-O-glyceryl ascorbic acid], the activity at 100 µM in data set [1] lay in the range of 100 to 200%. The “in vitro moisturizing effect (amount of retained water per 1 g of the dried sample)” value in data set [2] is on record as “◯ (35 mg or more)”. The “in vivo moisturizing (stratum corneum water content) after 8 hours” value in data set [3] was “Δ (Total points of 10 subjects is 16 to 24)”. Further, the “Whitening effect (melanine production suppressing rate)” value in the data set on B16 melanoma 4A5 cell is “Δ (Less than 30%)”. The figures for the Color change result in data set [4] (storage 2 weeks at 50° C.), in data set [4] (storage 4 weeks at 50° C.) and in data set [4] (setting [5]) were “◯ (total point of 10 panelists is 25 or more)”, “Δ (total point of 10 panelists is 16 to 24)” and “◯ (total point of 10 panelists is 25 or more)”, respectively. Also, the Odor result in data set [4] (storage 2 weeks at 50° C.), in data set [4] (storage 4 weeks at 50° C.) and in data set [4] (setting [5]) was “◯ (total point of 10 panelists is 25 or more)” each time.
